# According to patent publication US20230212225A1, “PEPTIDE COMPOSTIONS AND METHODS FOR TREATING TAUOPATHIES” (AXOLTIS PHARMA, priority 2019, published 2023):
# Where a SMILES comes first, the peptide text is derived from it.
# Experiments:
# [1] = tested on: Aβ25-35-induced short-term memory deficits; assay: Spontaneous alternation performance (Y-maze), treatment started 1 hour after Aβ25-35 injection, tested D08; assay type: in vivo, mice; conditions: for Y-maze % (Sc.Aβ / Vhc = 100) / Y-maze Mean, percentage of alternation: D08
# [2] = tested on: Aβ25-35-induced short-term memory deficits; assay: Late-stage efficacy: Y-maze with treatment started at D11; assay type: in vivo, mice
# Protocol: Seven days after ICV injection of Aβ25-35 peptide (D08), all animals were tested for spontaneous alternation performance in the Y-maze, an index of spatial working memory (short-term memory test). Each mouse was placed at the end of one arm and allowed to move freely through the maze during an 8 min session. An alternation is defined as entries into all three arms on consecutive occasions. The number of maximum alternations is therefore the total number of arm entries minus two and the percentage of alternation is calculated as (actual alternations / maximum alternations) x 100. This parameter includes the percentage of alternation (memory index) (Maurice et al., 1996, 1998; Meunier et al., 2006).
# The efficacy of NX210 and NX218 SCO-Spondin derived peptides was therefore assessed during this late-stage physiopathology setting. Specifically, the administrations of NX210, NX218 or vehicle were started at D11 and were repeated once a day until the end of the experiment.
# All animals were tested for spontaneous alternation performance in the Y-maze, an index of short-term memory (see Example 3 for method details) from D08 (i.e. pre-treatment values) and then once a week for three weeks (D15, D22, D29).
# [3] = tested on: Aβ25-35-induced spatial working memory deficits; assay: Place learning in the Morris water-maze (MWM), D09-D14; assay type: in vivo, mice; conditions: IP 2 mg/kg once a day
# Protocol: The examples are using a model of Tauopathies. In this model, mice were injected intracerebroventricularly (ICV) at Day 01 (D01) with Aβ25-35 peptide (or with scrambled-Aβ peptide (Sc.Aβ) for Sham animals). This severe animal model recapitulates modulations of specific biomarkers (including deposits of brain Amyloid Beta1-42 and hyperphosphorylated Tau protein) involved in the physiopathology and the progression of human Tauopathies, as well as strong cognitive deficits (memory loss) as encountered by the patients (Maurice et al., 1996, 1998, 2013; Meunier et al., 2006).
# After the Y-Maze and instead of performing the STPA test, some animals performed the Morris Water-Maze (MWM) test in order to assess spatial working memory deficits (a six-day test from D09 to D14). This gold-standard test consists in a circular pool filled with opaque water placed in a room with external cues (sink, contrasted posters, shelves). A platform is immersed under the water surface during acquisition. Training consists in 3 swims per day for 5 days, performed between D09 to D13, with a 20 min inter-trial time. Each mouse is allowed to swim for 90 sec in order to find the platform, and to stay on it for 20 sec.
# A probe test (PT) is performed 24 h after the last swim on D14. For the PT, the platform is removed, and each animal is allowed to swim for 60 sec. The start position for each mouse corresponds to one of two positions remote from the platform location in a counterbalanced order. The platform quadrant is named ‘target’ and other quadrants (opposite, adjacent right and adjacent left) are named ‘other’ during the PT. The time spent in each quadrant is recorded. The results are expressed as the percentage of time spent in the target quadrant compared to the mean percentage of time spent in the three other quadrants.
# Every day, the latencies to find the platform during the first (swim1), second (swim2), third (swim3), […] trials were monitored and averaged in this six-day experiment (Maurice et al., 2013).
# [4] = Preliminary in vitro conversion of NX210 in rat plasma; assay type: in vitro ADME
# [5] = tested on: hippocampal CA1 pyramidal neurons; assay: Histological study, cresyl violet CA1 pyramidal neuron counting, D15; assay type: in vivo, mice
# Text: In order to measure neuronal loss in this model (as described by Maurice et al., 2013), a well-known pathological event occurring in patients with AD/Tauopathies, hippocampal neurons were counted in the brain of Sham, Aβ25-35 / vehicle and Aβ25-35 / NX210-treated mice.
# To do so, fourteen days after ICV injection of Aβ25-35 or Scrambled peptide (D15) and daily compound administrations of NX210 (IP) or vehicle (IP), mice were anaesthetized by ketamine/xylazine and then transcardially perfused with phosphate buffer solution (PBS, 15 ml at 5 ml/min, pH 7.4) until fluid running clear, followed by a solution of 4% paraformaldehyde (PFA, 25 ml at 5 ml/min) until the fixation tremors disappeared. Brains were removed carefully and kept in 4% PFA at 4° C. for 24-48 h. Brains were then dehydrated through a series of graded ethanol baths to displace the water, and then infiltrated with wax. Finally, the infiltrated brains were embedded into wax blocks and sectioned at […]. Cresyl violet (CV) staining was performed on 9 brain sections per animal, each coronal section separated by 100 µm for CA1 pyramidal neuron counting.
# [6] = Pharmacokinetics in human healthy subjects; assay type: in vivo; conditions: single IV 10 mg/kg
# Protocol: As in animals; PK study of NX210 in Human Healthy subjects was conducted following the measurement of its cyclic form NX218.
# [7] = IP 2 mg/kg every other day (1/2d)
# [8] = IP 3.75 mg/kg every other day (1/2d)
# [9] = D08, pre-treatment value, IP 2 mg/kg once a day started at D11
# [10] = D15, IP 2 mg/kg once a day started at D11
# [11] = D22, IP 2 mg/kg once a day started at D11
# [12] = D29, IP 2 mg/kg once a day started at D11
# [13] = measured as NX218, maximum, N=3
# [14] = measured as NX218, minimum, N=3
smiles,measurement,setting,value
"N=C(N)NCCC[C@H](NC(=O)[C@H](CO)NC(=O)[C@H](CS)NC(=O)[C@H](CO)NC(=O)[C@H](CO)NC(=O)[C@H](Cc1c[nH]c2ccccc12)NC(=O)CNC(=O)[C@H](CO)NC(=O)[C@@H](N)Cc1c[nH]c2ccccc12)C(=O)N[C@@H](CO)C(=O)N[C@@H](CS)C(=O)NCC(=O)O [NX210, W-S-G-W-S-S-C-S-R-S-C-G] (H-WSGWSSCSRSCG-OH; N-terminus and C-terminus assumed)","effect on spatial short-term working memory deficits (Y-maze), in words","[1]; 1, 2 and 3.75 mg/kg IP, once a day or every other day",significantly rescued
same,Y-maze % (Sc.Aβ / Vhc = 100),[1]; IP 0.1 mg/kg once a day,60%
same,"Y-maze Mean, percentage of alternation",[1]; IP 0.1 mg/kg once a day,44.52%
same,Y-maze % (Sc.Aβ / Vhc = 100),[1]; IP 1 mg/kg once a day,79%
same,"Y-maze Mean, percentage of alternation",[1]; IP 1 mg/kg once a day,58.16%
same,Y-maze % (Sc.Aβ / Vhc = 100),[1]; [7],100%
same,"Y-maze Mean, percentage of alternation",[1]; [7],74.35%
same,Y-maze % (Sc.Aβ / Vhc = 100),[1]; IP 2 mg/kg once a day,98%
same,"Y-maze Mean, percentage of alternation",[1]; IP 2 mg/kg once a day,72.67%
same,Y-maze % (Sc.Aβ / Vhc = 100),[1]; [8],98%
same,"Y-maze Mean, percentage of alternation",[1]; [8],72.62%
same,Y-maze % (Sc.Aβ / Vhc = 100),[1]; IP 3.75 mg/kg once a day,96%
same,"Y-maze Mean, percentage of alternation",[1]; IP 3.75 mg/kg once a day,70.90%
same,"restoration of short-term memory to Sham level (Y-maze), in words","[1]; NX210 at 2 and 3.75 mg/kg, NX218 at 1, 2 and 3.75 mg/kg",complete restoration
same,"effect on Aβ25-35-induced short-term memory deficits (Y-maze) at subactive dose, in words","[1]; once a day, NX210 0.1 mg/kg, NX218 0.1 mg/kg, DPZ 0.25 mg/kg",do not impede
same,Y-maze (D08) % (Sc.Aβ / D11 vhc = 100),[2]; [9],55%
same,"Y-maze (D08) Mean, percentage of alternation",[2]; [9],39.17%
same,"effect on short-term working memory deficits at D15, in words","[2]; D15, five daily administrations, 2 mg/kg started at D11",tendency to rescue
same,Y-maze (D15) % (Sc.Aβ / D11 vhc = 100),[2]; [10],71%
same,"Y-maze (D15) Mean, percentage of alternation",[2]; [10],55.55%
same,"effect on working memory deficits at D22, in words","[2]; D22, 12 day-treatment, 2 mg/kg started at D11",significantly rescued
same,Y-maze (D22) % (Sc.Aβ / D11 vhc = 100),[2]; [11],82%
same,"Y-maze (D22) Mean, percentage of alternation",[2]; [11],60.08%
same,"effect on memory deficits at D29, in words","[2]; D29, 19 day-treatment, 2 mg/kg started at D11",fully restored
same,Y-maze (D29) % (compared to Sham group),[2]; [12],97%
same,"Y-maze (D29) Mean, percentage of alternation",[2]; [12],74.73%
same,"effect on learning profile and spatial memory deficits (MWM), in words",[3],significantly rescued
same,"MWM - Probe test, mean percentage of time spent in the three other quadrants (Other)",[3]; D14,20.30%
same,"MWM - Learning profile, Mean time spent to find the platform (last block, heading missing)",[3]; fifth training day,24.25 s
same,"MWM - Learning profile - Day 1, Mean time spent to find the platform",[3]; training Day 1,79.67 s
same,"MWM - Learning profile - Day 2, Mean time spent to find the platform",[3]; training Day 2,53.58 s
same,"MWM - Learning profile - Day 3, Mean time spent to find the platform",[3]; training Day 3,35.83 s
same,"MWM - Learning profile - Day 4, Mean time spent to find the platform",[3]; training Day 4,25.92 s
same,"conversion by oxidation in rat plasma, in words",[4],rapidly converted into NX218
same,"effect on neuronal loss in the hippocampus, in words",[5]; 2 mg/kg,significantly prevents
same,"Histology %, percentage of control (Sc.Aβ / Vhc)","[5]; IP 2 mg/kg once a day, D15",93%
same,Histology Mean,"[5]; IP 2 mg/kg once a day, D15",311.84 number of neurons per mm of tissue
same,"Kel (clearance rate constant), AM","[6]; measured as NX218, arithmetic mean, N=3",0.0348 I/min
same,"Kel (clearance rate constant), GM","[6]; measured as NX218, geometric mean, N=3",0.0347 I/min
same,"AUClast, Max","[6]; measured as NX218, maximum",7850 ng·min/mL
same,"Cmax, Max","[6]; measured as NX218, maximum",1040 ng/mL
same,"Tmax, Max","[6]; measured as NX218, maximum",12.00 min
same,"AUC∞, Max",[6]; [13],7920 ng·min/mL
same,"Kel (clearance rate constant), Max",[6]; [13],0.0372 I/min
same,"t½, Max",[6]; [13],22.5 min
same,"Kel (clearance rate constant), Median","[6]; measured as NX218, median, N=3",0.0365 I/min
same,"AUClast, Min","[6]; measured as NX218, minimum",1470 ng·min/mL
same,"Cmax, Min","[6]; measured as NX218, minimum",185 ng/mL
same,Tmax,"[6]; measured as NX218, minimum",6.00 min
same,"AUC∞, Min",[6]; [14],2800 ng·min/mL
same,"Kel (clearance rate constant), Min",[6]; [14],0.0308 I/min
same,t½,[6]; [14],18.6 min
